For data set [1], the target named is human NK3 (hNK3) receptor (Homo sapiens (Human), UniProt P29371). Description: Human NK3 receptor binding assay: radioligand ([125I]-NK-B) binding inhibition using membrane fraction of CHO cells expressing hNK3 receptor. Particulars: CHO cell membrane fraction.
Experimental: CHO cells expressing hNK3 receptor were cultured in a MEMα medium (Nikken Seibutsu Igaku Kenkyusho, K.K.) containing 100 U/mL penicillin, 100 μg/mL streptomycin and 10% inactivated dialyzed serum. The medium was removed, the adhered cells were washed with PBS, and PBS containing 5 mM EDTA was added to detach the cells from the flask. The cells were collected by centrifugation, suspended in suspension buffer A (50 mM Tris-HCl (pH 7.4) containing 120 mM NaCl, 5 mM KCl, 2 μg/mL chymostatin, 40 μg/mL bacitracin, 40 μg/mL APMSF, 1 mM EDTA), disrupted by a Polytron homogenizer (Kinematika), and centrifuged at 800×g for 10 min. The supernatant was recovered and ultracentrifuged at 100,000×g for 25 min. The precipitation fraction was suspended in suspension buffer B (50 mM Tris-HCl (pH 7.4), 0.02% bovine serum albumin, 2 μg/mL chymostatin, 40 μg/mL bacitracin, 40 μg/mL APMSF, 3 mM MnCl2), and cryopreserved (−80° C.) as a receptor reference standard. […]
After reaction at 25° C. for 30 min, the reaction was quenched using a cell harvester (PerkinElmer) by rapid filtration on a GF/C filter plate, and the cells were washed 5 times with 250 μL of a 50 mM Tris-HCl buffer (pH 7.4) containing 0.02% bovine serum albumin. The GF/C filter plate was dried, MicroScinti-0 (Perkin Elmer) was added by 20 μL, and the radioactivity was measured on a TopCount (PerkinElmer). […]
For a further data set, the target named is human NK1 receptor (Homo sapiens (Human), UniProt P25103). Put plainly: Human NK1 receptor binding assay: radioligand (125I-Bolton-Hunter-SP) binding inhibition using receptor from human lymphoblast cells (IM-9). Here is the method:
42, p. […] The receptor was prepared from human lymphoblast cells (IM-9).

In data set [2] the target is human NK2 (hNK2) receptor (Homo sapiens (Human), UniProt P21452). Put plainly: Human NK2 receptor binding assay: radioligand ([125I]-NK-A) binding inhibition using membrane fraction of CHO cells expressing hNK2 receptor. Particulars: CHO cell membrane fraction.
human NK2 (hNK2) receptor, sequence (P21452 whole entry): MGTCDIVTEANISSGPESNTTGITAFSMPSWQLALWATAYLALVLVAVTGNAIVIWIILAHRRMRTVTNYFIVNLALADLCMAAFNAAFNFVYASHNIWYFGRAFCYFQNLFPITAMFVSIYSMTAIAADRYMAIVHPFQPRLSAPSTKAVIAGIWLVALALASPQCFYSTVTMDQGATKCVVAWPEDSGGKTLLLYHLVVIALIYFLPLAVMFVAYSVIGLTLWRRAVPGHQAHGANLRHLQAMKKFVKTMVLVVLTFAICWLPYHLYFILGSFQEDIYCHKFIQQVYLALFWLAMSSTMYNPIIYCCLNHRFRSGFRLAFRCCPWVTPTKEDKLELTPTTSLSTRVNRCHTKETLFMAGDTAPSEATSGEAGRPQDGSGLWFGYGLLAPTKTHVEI
Experimental: CHO cells expressing hNK2 receptor were cultured in a HAM-F12 medium containing 400 μg/mL geneticin, 100 U/mL penicillin, 100 μg/mL streptomycin and 10% inactivated serum. The medium was removed, the adhered cells were washed with PBS, and PBS containing 5 mM EDTA was added to detach the cells from the flask. The cells were collected by centrifugation, suspended in suspension buffer A (15 mM Tris-HCl (pH 7.5), 2 mM MgCl2, 0.3 mM ethylenediaminetetraacetic acid (EDTA), 1 mM O,O′-bis(2-aminoethyl)ethyleneglycol-N,N,N′,N′-tetraacetic acid (EGTA)), disrupted by a Polytron homogenizer (Kinematika), and centrifuged at 800×g for 10 min. The supernatant was recovered and ultracentrifuged at 100,000×g for 25 min.
Measurement buffer (50 mM Tris-HCl (pH 7.4), 0.02% bovine serum albumin, 2 μg/mL chymostatin, 40 μg/mL bacitracin, 40 μg/mL APMSF, 3 mM MnCl2) (50 μL) was added to a 96-well microassay plate. The membrane reference standard (20 μg/mL) suspended in a measurement buffer was added by 50 μL.
After reaction at 25° C. for 30 min, the reaction was quenched using a cell harvester (PerkinElmer) by rapid filtration on a GF/C filter plate, and the cells were washed 5 times with 250 μL of a 50 mM Tris-HCl buffer (pH 7.4) containing 0.02% bovine serum albumin. The GF/C filter plate was dried, MicroScinti-0 (PerkinElmer) was added by 20 μL, and the radioactivity was measured on a TopCount (PerkinElmer). The GF/C filter plate used had been immersed in 0.3% polyethyleneimine for one day.
The specific binding level is shown by a value obtained by subtracting non-specific binding level from the total binding level. The binding inhibitory activity of the test compound is shown by a ratio of the value obtained by subtracting the measurement value with addition of a test compound from the total binding level, to the value of the specific binding level.

The structures appear in SMILES notation.

As a reminder, the melting point is the temperature of the solid-liquid transition. As usually defined, the IC50 is the concentration needed to halve the response being measured.

human NK1 receptor, sequence (P25103 whole entry): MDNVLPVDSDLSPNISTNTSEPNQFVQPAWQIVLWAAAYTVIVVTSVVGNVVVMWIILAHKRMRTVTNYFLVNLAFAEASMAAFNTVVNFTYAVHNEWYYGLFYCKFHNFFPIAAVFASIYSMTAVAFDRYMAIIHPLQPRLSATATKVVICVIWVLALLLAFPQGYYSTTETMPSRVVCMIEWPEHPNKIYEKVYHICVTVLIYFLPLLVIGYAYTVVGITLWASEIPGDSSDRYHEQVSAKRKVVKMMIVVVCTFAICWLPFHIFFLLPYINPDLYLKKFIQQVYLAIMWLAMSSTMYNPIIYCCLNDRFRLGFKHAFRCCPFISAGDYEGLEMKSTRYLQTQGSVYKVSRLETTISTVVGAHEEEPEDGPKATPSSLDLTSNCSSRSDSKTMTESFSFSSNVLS
human NK3 (hNK3) receptor, sequence (P29371 whole entry): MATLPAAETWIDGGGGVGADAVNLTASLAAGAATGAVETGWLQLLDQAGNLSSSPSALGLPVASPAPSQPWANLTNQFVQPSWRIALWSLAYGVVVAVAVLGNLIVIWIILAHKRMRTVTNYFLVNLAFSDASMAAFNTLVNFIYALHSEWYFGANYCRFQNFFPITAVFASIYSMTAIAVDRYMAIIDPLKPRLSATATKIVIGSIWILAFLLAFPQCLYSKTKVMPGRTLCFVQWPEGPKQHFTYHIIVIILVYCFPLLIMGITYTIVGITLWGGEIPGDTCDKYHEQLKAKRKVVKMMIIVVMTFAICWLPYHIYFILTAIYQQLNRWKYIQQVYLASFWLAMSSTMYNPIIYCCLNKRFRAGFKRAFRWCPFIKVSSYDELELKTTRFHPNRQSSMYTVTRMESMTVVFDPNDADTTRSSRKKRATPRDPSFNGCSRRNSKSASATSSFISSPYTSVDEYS

With `CC(=O)N1CCC(C(=O)N2CC[C@@H](N(C)C(=O)c3ccc(Br)cn3)[C@H](c3ccc(Cl)c(Cl)c3)C2)CC1`, the melting point was 128 to 130 °C. With `CC(=O)N1CCC(C(=O)N2CC[C@@H](N(C)C(=O)c3ccc(-c4ccccc4)cc3)[C@H](c3ccc(Cl)c(Cl)c3)C2)CC1` (racemic) [Example 31, N-[(3R*,4R*)-1-[(1-acetylpiperidin-4-yl)carbonyl]-3-(3,4-dichlorophenyl)piperidin-4-yl]-N-methylbiphenyl-4-carboxamide], the IC50 in data set [1] is 160 nM; at human NK1 receptor (radioligand binding inhibition, IM-9 cell receptor, read-out: hNK1 IC50) it was 410 nM; in data set [2], 1.7 nM.

On to `CN(C(=O)c1ccc(C(F)(F)F)cc1)[C@@H]1CCN(C(=O)C2CCN(C(=O)CO)CC2)C[C@H]1c1ccc(Cl)c(Cl)c1.O` (hydrate or solvate), for which the melting point lay in the range of 124 to 127 °C. The compound `CN(C(=O)c1ccc(Cl)cc1)[C@@H]1CCN(C(=O)C2CCN(C(=O)CO)CC2)C[C@H]1c1ccc(Cl)c(Cl)c1.O` (hydrate or solvate) yielded a melting point of 128 to 131 °C. Still for that read-out and setting: the result for `CN(C(=O)c1ccc(Cl)cc1)[C@@H]1CCN(C(=O)Nc2ccc(F)nc2)C[C@H]1c1ccc(Cl)c(Cl)c1` [Example 516, (3R,4R)-4-{[(4-chlorophenyl)carbonyl](methyl)amino}-3-(3,4-dichlorophenyl)-N-(6-fluoropyridin-3-yl)piperidine-1-carboxamide] reads 156 to 158 °C; that for `CC(=O)N1CCC(C(=O)N2CC[C@@H](N(C)C(=O)c3ccc(N4CCOCC4)cc3)[C@H](c3ccc(Cl)c(Cl)c3)C2)CC1.O` (hydrate or solvate) [Example 268, N-[(3R,4R)-1-[(1-acetylpiperidin-4-yl)carbonyl]-3-(3,4-dichlorophenyl)piperidin-4-yl]-N-methyl-4-morpholin-4-ylbenzamide monohydrate], 136 to 139 °C; that for `CC(=O)N1CCC(C(=O)N2CC[C@@H](N(C)C(=O)c3ccc(Cl)cc3)[C@H](c3ccc(Cl)c(Cl)c3)C2)CC1.O` (hydrate or solvate), 113 to 115 °C. In the case of `CC(=O)N1CCC(C(=O)N2C[C@@H](N(C)C(=O)c3cc(C(F)(F)F)cc(C(F)(F)F)c3)[C@H](c3ccc(Cl)c(Cl)c3)C2)CC1` (racemic) [Example 82, N-[(3S*,4R*)-1-[(1-acetylpiperidin-4-yl)carbonyl]-4-(3,4-dichlorophenyl)pyrrolidin-3-yl]-N-methyl-3,5-bis(trifluoromethyl)benzamide], the IC50 in data set [2] amounted to 2.2 nM. Compound `CN(C(=O)c1ccc(Br)cc1)[C@@H]1CCN(C(=O)C2CCN(C(=O)CO)CC2)C[C@H]1c1ccc(Cl)c(Cl)c1.O` (hydrate or solvate) gave a melting point of 130 to 132 °C. `CC(=O)N1CCC(C(=O)N2CC[C@@H](N(C)C(=O)c3ccc(N4CCOCC4)cc3)[C@H](c3ccc(Cl)c(Cl)c3)C2)CC1.O` [Example 268, N-[(3R,4R)-1-[(1-acetylpiperidin-4-yl)carbonyl]-3-(3,4-dichlorophenyl)piperidin-4-yl]-N-methyl-4-morpholin-4-ylbenzamide monohydrate]: on human NK1 receptor (10 μM), the “hNK1 % inh. (10 μM)” value worked out at 58.2% inh. In data set [2], this compound registered an IC50 of 0.42 nM. `COc1ccc(C(=O)N(C)[C@@H]2CCN(C(=O)C3CCN(C(C)=O)CC3)C[C@H]2c2ccc(Cl)c(Cl)c2)cc1` gave a melting point of 134 to 136 °C.

The values are drawn from patent US8470816B2, “Nitrogen-containing heterocyclic compound and use thereof” (Takeda Pharmaceutical Company Limited, priority 2007, dated 2013).
